BindingDB's records for doi:10.1016/s0960-894x(01)00378-x (The R. W. Johnson Pharmaceutical Research Institute, 2001)
pIC50: −log10 of the molar value.

Experiments:
[1] = In vitro inhibition of human platelet aggregation induced by SFLLRN-NH2 (at a concentration of 2 uM)
[2] = In vitro inhibition of human platelet aggregation induced by alpha-thrombin (at a concentration of 0.15 nM)
[3] = as above; remark: listed apart in the source
[4] = target: T1, Proteinase-activated receptor 1 (Homo sapiens, UniProt P25116); assay: In vitro inhibition of human platelet aggregation induced by SFLLRN-NH2 (at a concentration of 2 uM)
T1 sequence (P25116 whole entry): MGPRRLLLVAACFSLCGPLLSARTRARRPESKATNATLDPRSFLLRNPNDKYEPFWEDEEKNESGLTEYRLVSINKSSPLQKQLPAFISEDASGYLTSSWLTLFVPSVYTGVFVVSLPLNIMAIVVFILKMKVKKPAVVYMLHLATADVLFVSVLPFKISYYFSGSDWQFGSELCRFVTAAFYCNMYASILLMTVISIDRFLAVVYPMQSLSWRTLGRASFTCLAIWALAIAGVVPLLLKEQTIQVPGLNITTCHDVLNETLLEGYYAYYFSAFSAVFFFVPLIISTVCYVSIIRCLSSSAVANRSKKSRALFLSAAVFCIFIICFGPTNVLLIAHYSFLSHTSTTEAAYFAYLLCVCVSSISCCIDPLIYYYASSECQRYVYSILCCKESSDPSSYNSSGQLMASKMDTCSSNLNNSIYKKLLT

[5] = target: T1, Proteinase-activated receptor 1; assay: In vitro inhibition of human platelet aggregation induced by alpha-thrombin (at a concentration of 0.15 nM)

| pIC50 [1] | pIC50 [2] | Compound | also measured |
| --- | --- | --- | --- |
| 6.57 | 5.63 | COc1ccc(C[C@H](NC(=O)Nc2ccc3c(CN4CCCC4)cn(Cc4ccc(F)cc4)c3c2)C(=O)N[C@@H](CCCNC(=N)N)C(=O)NCc2ccccc2)cc1 [2-[2-{3-[1-(4-Fluoro-benzyl)-3-pyrrolidin-1-ylmethyl-1H-indol-6-yl]-ureido}-3-(4-methoxy-phenyl)-propionylamino]-5-guanidino-pentanoic acid benzylamide] | – |
| 6.80 | 6.47 | NCCC(NC(=O)[C@H](Cc1ccc(F)c(F)c1)NC(=O)Nc1ccc2c(CN3CCCC3)cn(Cc3c(Cl)cccc3Cl)c2c1)C(=O)NCc1ccccc1 (stereo partly drawn) [4-Amino-N-benzyl-2-[(S)-2-{3-[1-(2,6-dichloro-benzyl)-3-pyrrolidin-1-ylmethyl-1H-indol-6-yl]-ureido}-3-(3,4-difluoro-phenyl)-propionylamino]-butyramide] | – |
| 6.22 | 6.21 | Cc1ccccc1Cn1cc(CN2CCCC2)c2ccc(NC(=O)N[C@@H](Cc3ccc(C#N)cc3)C(=O)N[C@@H](CCCNC(=N)N)C(=O)NCc3ccccc3)cc21 [(S)-2-((S)-3-(4-Cyano-phenyl)-2-{3-[1-(2-methyl-benzyl)-3-pyrrolidin-1-ylmethyl-1H-indol-6-yl]-ureido}-propionylamino)-5-guanidino-pentanoic acid benzylamide] | – |
| 6.85 | 5.59 | COc1ccc(C[C@H](NC(=O)Nc2ccc3c(CN4CCCC4)cn(Cc4ccccc4Cl)c3c2)C(=O)N[C@@H](CCCNC(=N)N)C(=O)NCCCc2ccccc2)cc1 [(S)-2-[(S)-2-{3-[1-(2-Chloro-benzyl)-3-pyrrolidin-1-ylmethyl-1H-indol-6-yl]-ureido}-3-(4-methoxy-phenyl)-propionylamino]-5-guanidino-pentanoic acid (3-phenyl-propyl)-amide] | – |
| 7.00 | – | NCCCC[C@H](NC(=O)[C@H](Cc1ccc(F)c(F)c1)NC(=O)Nc1ccc2c(CN3CCCC3)cn(Cc3c(Cl)cccc3Cl)c2c1)C(=O)NCc1ccccc1 [(S)-6-Amino-2-[(S)-2-{3-[1-(2,6-dichloro-benzyl)-3-pyrrolidin-1-ylmethyl-1H-indol-6-yl]-ureido}-3-(3,4-difluoro-phenyl)-propionylamino]-hexanoic acid benzylamide] | pIC50 [3]: 6.15 |
| 6.70 | – | O=C(Nc1ccc2c(CN3CCCC3)cn(Cc3c(Cl)cccc3Cl)c2c1)N[C@@H](Cc1ccc(F)c(F)c1)C(=O)NC(Cc1cnc[nH]1)C(=O)NCc1ccccc1 (stereo partly drawn) [(S)-N-[1-Benzylcarbamoyl-2-(3H-imidazol-4-yl)-ethyl]-2-{3-[1-(2,6-dichloro-benzyl)-3-pyrrolidin-1-ylmethyl-1H-indol-6-yl]-ureido}-3-(3,4-difluoro-phenyl)-propionamide] | pIC50 [3]: 6.34 |
| 6.40 | – | CSCCC(NC(=O)[C@H](Cc1ccc(F)c(F)c1)NC(=O)Nc1ccc2c(CN3CCCC3)cn(Cc3c(Cl)cccc3Cl)c2c1)C(=O)NCc1ccccc1 (stereo partly drawn) [N-Benzyl-2-[(S)-2-{3-[1-(2,6-dichloro-benzyl)-3-pyrrolidin-1-ylmethyl-1H-indol-6-yl]-ureido}-3-(3,4-difluoro-phenyl)-propionylamino]-4-methylsulfanyl-butyramide] | – |

Further lines, the compound ahead of its results:

| Compound | pIC50 [1] | pIC50 [2] | also measured |
| --- | --- | --- | --- |
| COC(=O)c1ccc(Cn2cc(CN3CCCC3)c3ccc(NC(=O)N[C@@H](Cc4ccc(OC)cc4)C(=O)N[C@@H](CCCNC(=N)N)C(=O)NCC4CCCCC4)cc32)cc1 [4-(6-{3-[(S)-1-[(S)-1-(Cyclohexylmethyl-carbamoyl)-4-guanidino-butylcarbamoyl]-2-(4-methoxy-phenyl)-ethyl]-ureido}-3-pyrrolidin-1-ylmethyl-indol-1-ylmethyl)-benzoic acid methyl ester] | – | – | pIC50 [3]: 4.41 |
| N=C(N)NCCC[C@H](NC(=O)[C@H](Cc1ccc(F)c(F)c1)NC(=O)Nc1ccc2c(CN3CCCC3)cn(Cc3c(Cl)cccc3Cl)c2c1)C(=O)NCc1ccccc1 [(S)-2-[(S)-2-{3-[1-(2,6-Dichloro-benzyl)-3-pyrrolidin-1-ylmethyl-1H-indol-6-yl]-ureido}-3-(3,4-difluoro-phenyl)-propionylamino]-5-guanidino-pentanoic acid benzylamide] | – | – | pIC50 [3]: 6.24 |
| COc1ccc(C[C@H](NC(=O)Nc2ccc3c(CN4CCCC4)cn(Cc4ccc(F)cc4)c3c2)C(=O)N[C@@H](CCCNC(=N)N)C(=O)NCCCc2ccccc2)cc1 [(S)-2-[(S)-2-{3-[1-(4-Fluoro-benzyl)-3-pyrrolidin-1-ylmethyl-1H-indol-6-yl]-ureido}-3-(4-methoxy-phenyl)-propionylamino]-5-guanidino-pentanoic acid (3-phenyl-propyl)-amide] | 6.22 | 5.07 | – |
| COc1ccc(C[C@H](NC(=O)Nc2ccc3c(CN4CCCC4)cn(Cc4ccc(F)cc4)c3c2)C(=O)N[C@@H](CCCNC(=N)N)C(=O)NCC2CCCCC2)cc1 [(S)-2-[(S)-2-{3-[1-(4-Fluoro-benzyl)-3-pyrrolidin-1-ylmethyl-1H-indol-6-yl]-ureido}-3-(4-methoxy-phenyl)-propionylamino]-5-guanidino-pentanoic acid cyclohexylmethyl-amide] | – | 5.36 | – |
| NC(N)=NCCCC(NC(=O)C(Cc1ccc([N+](=O)[O-])cc1)NC(=O)Nc1ccc2c(CN3CCCC3)cn(Cc3ccc(F)cc3)c2c1)C(=O)NCc1ccccc1 [(S)-2-[(S)-2-{3-[1-(4-Fluoro-benzyl)-3-pyrrolidin-1-ylmethyl-1H-indol-6-yl]-ureido}-3-(4-nitro-phenyl)-propionylamino]-5-guanidino-pentanoic acid benzylamide] | – | – | pIC50 [4]: 6.89; pIC50 [5]: 5.21 |
| CCN(CC)Cc1cn(Cc2ccccc2C)c2cc(NC(=O)N[C@@H](Cc3ccc(OC)cc3)C(=O)N[C@@H](CCCNC(=N)N)C(=O)NCCCc3ccccc3)ccc12 [(S)-2-[(S)-2-{3-[3-Diethylaminomethyl-1-(2-methyl-benzyl)-1H-indol-6-yl]-ureido}-3-(4-methoxy-phenyl)-propionylamino]-5-guanidino-pentanoic acid (3-phenyl-propyl)-amide] | 6.64 | – | pIC50 [3]: 5.52 |
| CCN(CC)Cc1cn(Cc2cccc(C)c2)c2cc(NC(=O)N[C@@H](Cc3ccc(OC)cc3)C(=O)N[C@@H](CCCNC(=N)N)C(=O)NCCCc3ccccc3)ccc12 [(S)-2-[(S)-2-{3-[3-Diethylaminomethyl-1-(3-methyl-benzyl)-1H-indol-6-yl]-ureido}-3-(4-methoxy-phenyl)-propionylamino]-5-guanidino-pentanoic acid (3-phenyl-propyl)-amide] | 6.68 | 5.89 | – |
| CCN(CC)Cc1cn(Cc2ccc(F)cc2)c2cc(NC(=O)N[C@@H](Cc3ccc(OC)cc3)C(=O)N[C@@H](CCCNC(=N)N)C(=O)NCC3CCCCC3)ccc12 [(S)-2-[(S)-2-{3-[3-Diethylaminomethyl-1-(4-fluoro-benzyl)-1H-indol-6-yl]-ureido}-3-(4-methoxy-phenyl)-propionylamino]-5-guanidino-pentanoic acid cyclohexylmethyl-amide] | 6.05 | 4.95 | – |
| COc1ccc(C[C@H](NC(=O)Nc2ccc3c(CN4CCCCC4)cn(Cc4ccccc4C)c3c2)C(=O)N[C@@H](CCCNC(=N)N)C(=O)NCCCc2ccccc2)cc1 [(S)-5-Guanidino-2-((S)-3-(4-methoxy-phenyl)-2-{3-[1-(2-methyl-benzyl)-3-piperidin-1-ylmethyl-1H-indol-6-yl]-ureido}-propionylamino)-pentanoic acid (3-phenyl-propyl)-amide] | 6.51 | 5.32 | – |
| COc1ccc(C[C@H](NC(=O)Nc2ccc3c(CN4CCCCC4)cn(Cc4cccc(C)c4)c3c2)C(=O)N[C@@H](CCCNC(=N)N)C(=O)NCC2CCCCC2)cc1 [(S)-5-Guanidino-2-((S)-3-(4-methoxy-phenyl)-2-{3-[1-(3-methyl-benzyl)-3-piperidin-1-ylmethyl-1H-indol-6-yl]-ureido}-propionylamino)-pentanoic acid cyclohexylmethyl-amide] | 6.05 | 4.93 | – |
| COc1ccc(C[C@H](NC(=O)Nc2ccc3c(CN4CCCCC4)cn(Cc4ccc(OC(F)(F)F)cc4)c3c2)C(=O)N[C@@H](CCCNC(=N)N)C(=O)NCC2CCCCC2)cc1 [(S)-5-Guanidino-2-((S)-3-(4-methoxy-phenyl)-2-{3-[3-piperidin-1-ylmethyl-1-(4-trifluoromethoxy-benzyl)-1H-indol-6-yl]-ureido}-propionylamino)-pentanoic acid cyclohexylmethyl-amide] | – | 4.44 | – |
| Cc1ccccc1Cn1cc(CN2CCCC2)c2ccc(NC(=O)NC(Cc3ccc([N+](=O)[O-])cc3)C(=O)NC(CCCNC(=N)N)C(=O)NCc3ccccc3)cc21 [(S)-5-Guanidino-2-[(S)-2-{3-[1-(2-methyl-benzyl)-3-pyrrolidin-1-ylmethyl-1H-indol-6-yl]-ureido}-3-(4-nitro-phenyl)-propionylamino]-pentanoic acid benzylamide] | – | – | pIC50 [4]: 6.82 |
| COc1ccc(C[C@H](NC(=O)Nc2ccc3c(CN4CCCC4)cn(Cc4c(Cl)cccc4Cl)c3c2)C(=O)N[C@@H](CCCN=C(N)N)C(=O)NCc2ccccc2)cc1 [RWJ-54003] | – | – | pIC50 [5]: 6.05 |
